Measurements taken from US20220089599A1, “ALKYNYL NICOTINAMIDE COMPOUNDS AS KINASE INHIBITORS” (PURDUE RESEARCH FOUNDATION, priority 2018, published 2022).
Like-named read-outs stand apart in the source and are kept apart here.

Columns and labels:
MOLM14 = type: cell-based; settings: Homo sapiens
MOLM14-D835Y = type: cell-based
K562 = type: cell-based; settings: Homo sapiens
KCL22 = type: cell-based; settings: Homo sapiens
KCL22-IR = type: cell-based; settings: read-out: IC50 KCL22-IR
MOLM14-F691L = type: cell-based; settings: Homo sapiens
MV-4-11 = type: cell-based; settings: Homo sapiens
MOLM13-res = type: cell-based; settings: read-out: IC50 MOLM13-res
H520 = type: cell-based; settings: Homo sapiens
LC2/Ad = test: cells; settings: Homo sapiens, LC-2-ad, read-out: IC50 LC2/Ad
c-SRC = c-SRC (Homo sapiens, UniProt P12931); test: Kinase IC50 at Reaction Biology; type: biochemical
[1] = cell activities of other nicotinamide compounds, MOLM-14, read-out: IC50 MOLM-14
[2] = Homo sapiens, cell activities of other nicotinamide compounds, MOLM-14 (ITD, D85Y), read-out: IC50 MOLM-14 (ITD, D85Y)
[3] = cell activities of other nicotinamide compounds, K562, read-out: IC50 K562
[4] = KCL-22, cell activities of other nicotinamide compounds, KCL22, read-out: IC50 KCL22
[5] = cell activities of other nicotinamide compounds, KCL22-IR
[6] = cell activities of other nicotinamide compounds, MOLM-14 (ITD, F691L), read-out: IC50 MOLM-14 (ITD, F691L)

Sequence of c-SRC (P12931 whole entry): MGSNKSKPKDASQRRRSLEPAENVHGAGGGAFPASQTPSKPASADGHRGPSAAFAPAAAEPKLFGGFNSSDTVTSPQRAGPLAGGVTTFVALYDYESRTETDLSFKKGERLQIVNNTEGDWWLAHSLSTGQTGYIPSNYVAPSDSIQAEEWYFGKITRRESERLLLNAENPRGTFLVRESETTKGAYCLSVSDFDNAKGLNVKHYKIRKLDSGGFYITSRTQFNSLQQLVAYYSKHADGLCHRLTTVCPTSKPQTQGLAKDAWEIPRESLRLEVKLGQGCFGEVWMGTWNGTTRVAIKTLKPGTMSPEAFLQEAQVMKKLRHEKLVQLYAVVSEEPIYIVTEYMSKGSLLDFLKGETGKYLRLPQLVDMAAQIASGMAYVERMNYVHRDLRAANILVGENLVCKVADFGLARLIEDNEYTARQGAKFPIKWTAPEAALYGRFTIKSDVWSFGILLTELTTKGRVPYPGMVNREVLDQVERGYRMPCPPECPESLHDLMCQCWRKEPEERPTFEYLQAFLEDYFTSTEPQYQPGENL

| Structure (SMILES) | IC50 (MOLM14; [1]) | IC50 (MOLM14-D835Y; [2]) | IC50 (K562; [3]) | IC50 (KCL22; [4]) | IC50 (KCL22-IR; [5]) | IC50 (MOLM14-F691L; [6]) | other results |
| --- | --- | --- | --- | --- | --- | --- | --- |
| CN1CCN(Cc2ccc(C(=O)Nc3cncc(C#Cc4cnc5cccnn45)c3)cc2C(F)(F)F)CC1 [HSL338, N-(5-(imidazo[1,2-b]pyridazin-3-ylethynyl)pyridin-3-yl)-4-((4-methylpiperazin-1-yl)methyl)-3-(trifluoromethyl)benzamide] | 0.075 ± 0.0005 nM | 7.4 ± 0.04 nM | 0.45 ± 0.002 nM | 1.4 ± 0.02 nM | 4.2 ± 0.04 nM | – | – |
| Cc1ncc(C(=O)Nc2ccc(CN3CCN(C)CC3)c(C(F)(F)F)c2)cc1C#Cc1cnc2cccnn12 [HSL420, 5-(imidazo[1,2-b]pyridazin-3-ylethynyl)-6-methyl-N-(4-((4-methylpiperazin-1-yl)methyl)-3-(trifluoromethyl)phenyl)nicotinamide] | – | 2.24 ± 0.08 nM | 0.059 ± 0.002 nM | 0.06 ± 0.002 nM | 0.46 ± 0.01 nM | 0.57 ± 0.004 nM | – |
| Cc1ccc(C(=O)Nc2ccc(CN3CCN(C)CC3)c(C(F)(F)F)c2)cc1C#Cc1cnc2cccnn12 [Ponatinib, reference compound] | – | – | – | – | – | – | IC50 (MV-4-11; MV4-11, read-out: IC50 MV-4-11): 0.09 nM; IC50 (MOLM13-res): 24.1 nM; IC50 (MOLM14; MOLM-14, read-out: IC50 MOLM14): 0.45 nM; IC50 (MOLM14-D835Y; read-out: IC50 MOLM14-D835Y): 52.6 nM; IC50 (MOLM14-F691L; MOLM-14, read-out: IC50 MOLM14-F691L): 6.8 nM; IC50 (K562; K562, read-out: IC50 K562): 0.6 nM; IC50 (KCL22; KCL-22, read-out: IC50 KCL22): 0.14 nM; IC50 (KCL22-IR): 0.66 nM; IC50 (H520; NCI-H520, read-out: IC50 H520): 128 nM; IC50 (LC2/Ad): 35.1 nM |
| CN1CCN(Cc2ccc(NC(=O)c3cncc(C#Cc4cnc5ncccn45)c3)cc2C(F)(F)F)CC1 [HSL382, 5-(imidazo[1,2-a]pyrimidin-3-ylethynyl)-N-(4-((4-methylpiperazin-1-yl)methyl)-3-(trifluoromethyl)phenyl)nicotinamide] | 5.15 ± 0.09 nM | > 100 nM | > 100 nM | > 100 nM | > 100 nM | > 100 nM | – |
| CN1CCN(Cc2ccc(NC(=O)c3cncc(C#Cc4cnc5ccnn5c4)c3)cc2C(F)(F)F)CC1 [HSL412, N-(4-((4-methylpiperazin-1-yl)methyl)-3-(trifluoromethyl)phenyl)-5-(pyrazolo[1,5-a]pyrimidin-6-ylethynyl)nicotinamide] | – | > 100 nM | 28.1 ± 0.6 nM | 28.1 ± 0.4 nM | – | 17.8 ± 1.3 nM | – |
| CN1CCN(Cc2ccc(NC(=O)c3cncc(C#Cc4cnc5cccnn45)c3)cc2C(F)(F)F)CC1 [HSN748, 5-(imidazo[1,2-b]pyridazin-3-ylethynyl)-N-(4-((4-methylpiperazin-1-yl)methyl)-3-(trifluoromethyl)phenyl)nicotinamide] | – | – | – | – | – | – | IC50 (c-SRC; [ATP] = 100 μM, read-out: IC50 c-SRC): > 1000 nM; IC50 (c-SRC; read-out: IC50 c-Src kinase): > 1000 nM; IC50 (MV-4-11; MV4-11, growth inhibition, MV-4-11 (FLT3) cell line, read-out: IC50 MV-4-11): 0.07 nM; IC50 (MOLM13-res; growth inhibition, MOLM13-res cell line): 1.73 nM; IC50 (MOLM14; MOLM-14, growth inhibition, MOLM14 cell line, read-out: IC50 MOLM14): 0.05 nM; IC50 (MOLM14-D835Y; growth inhibition, quizartinib-resistant AML cell line, read-out: IC50 MOLM14-D835Y): 0.69 nM; IC50 (MOLM14-F691L; MOLM-14, growth inhibition, gilteritinib-resistant AML cell line Molm14 (ITD, F691L), read-out: IC50 MOLM14-F691L): 0.18 nM; IC50 (K562; growth inhibition, K562 (ABL1) cell line, read-out: IC50 K562): 0.8 nM; IC50 (KCL22; KCL-22, growth inhibition, KCL22 cell line, read-out: IC50 KCL22): 1.32 nM; IC50 (KCL22-IR; growth inhibition, KCL22-IR cell line): 0.23 nM; IC50 (H520; NCI-H520, growth inhibition, H520 cell line, read-out: IC50 H520): 839 nM |
| CN1CCN(Cc2ccc(NC(=O)c3cncc(C#Cc4cnc5cnccn45)c3)cc2C(F)(F)F)CC1 [HSL385, 5-(imidazo[1,2-a]pyrazin-3-ylethynyl)-N-(4-((4-methylpiperazin-1-yl)methyl)-3-(trifluoromethyl)phenyl)nicotinamide] | 0.15 ± 0.007 nM | 28.5 ± 0.9 nM | 0.94 ± 0.002 nM | 2.62 ± 0.06 nM | 17.2 ± 0.8 nM | – | – |
| CN1CCN(Cc2ccc(NC(=O)c3cncc(C#Cc4cncc5nccn45)c3)cc2C(F)(F)F)CC1 [HSL407, 5-(imidazo[1,2-a]pyrazin-5-ylethynyl)-N-(4-((4-methylpiperazin-1-yl)methyl)-3-(trifluoromethyl)phenyl)nicotinamide] | – | 42.9 ± 0.7 nM | 1.83 ± 0.02 nM | 2.93 ± 0.04 nM | 49.7 ± 2.5 nM | 6.87 ± 0.13 nM | – |
| CN1CCN(Cc2ccc(NC(=O)c3cncc(C#Cc4cnc5ccccn45)c3)cc2C(F)(F)F)CC1 [HSL381, 5-(imidazo[1,2-a]pyridin-3-ylethynyl)-N-(4-((4-methylpiperazin-1-yl)methyl)-3-(trifluoromethyl)phenyl)nicotinamide] | 0.04 ± 0.006 nM | 7.12 ± 0.06 nM | 0.57 ± 0.003 nM | 0.89 ± 0.005 nM | 4.24 ± 0.05 nM | 0.55 ± 0.06 nM | – |
